# In PubChem BioAssay AID1963871 (Molecular Pharmacology Branch, DTP, NCI, 2024):
# Tested on: KRAS-mutant PDC multicell tumor spheroid viability
# Test: Anticancer human tumor 521955-158-R2-J5-PDC patient-derived pancreatic carcinoma cell line growth inhibition [KRAS2]
# Details: for IC50: curve of first compound; for viability, T/C: stronger effect = lower value
# Outline: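 KRAS-mutant tumor cells were grown as spheroids with HUVEC endothelial cells and human MSCs as stroma. Targeted agents were tested alone and with KRAS pathway inhibitors. Doses started at or near clinical Cmax, or 10 microM, descending half-log.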
# [1] = second compound 0.1 µM, first compound 0.0316 µM
# [2] = second compound 0.1 µM, first compound 0.1 µM
# [3] = second compound 0.1 µM, first compound 0.316 µM
# [4] = second compound 0.1 µM, first compound 1 µM
# [5] = second compound 0.1 µM, first compound 3.16 µM
# [6] = second compound 0.1 µM, first compound 10 µM
# [7] = second compound 0.316 µM, first compound 0.0316 µM
# [8] = second compound 0.316 µM, first compound 0.1 µM
# [9] = second compound 0.316 µM, first compound 0.316 µM
# [10] = second compound 0.316 µM, first compound 1 µM
# [11] = second compound 0.316 µM, first compound 3.16 µM
# [12] = second compound 0.316 µM, first compound 10 µM
# [13] = second compound 1 µM, first compound 0.0316 µM
# [14] = second compound 1 µM, first compound 0.1 µM
# [15] = second compound 1 µM, first compound 0.316 µM
# [16] = second compound 1 µM, first compound 1 µM
# [17] = second compound 1 µM, first compound 3.16 µM
# [18] = second compound 1 µM, first compound 10 µM
# [19] = second compound 3.16 µM, first compound 0.0316 µM
# [20] = second compound 3.16 µM, first compound 0.1 µM
# [21] = second compound 3.16 µM, first compound 0.316 µM
# [22] = second compound 3.16 µM, first compound 1 µM
# [23] = second compound 3.16 µM, first compound 3.16 µM
# [24] = second compound 3.16 µM, first compound 10 µM
# [25] = second compound 10 µM, first compound 0.0316 µM
# [26] = second compound 10 µM, first compound 0.1 µM
# [27] = second compound 10 µM, first compound 0.316 µM
# [28] = second compound 10 µM, first compound 1 µM
# [29] = second compound 10 µM, first compound 3.16 µM
# [30] = second compound 10 µM, first compound 10 µM
# [31] = second compound 0.1 µM, first compound 0.00316 µM
# [32] = second compound 0.1 µM, first compound 0.01 µM
# [33] = second compound 0.316 µM, first compound 0.00316 µM
# [34] = second compound 0.316 µM, first compound 0.01 µM
# [35] = second compound 1 µM, first compound 0.00316 µM
# [36] = second compound 1 µM, first compound 0.01 µM
# [37] = second compound 3.16 µM, first compound 0.00316 µM
# [38] = second compound 3.16 µM, first compound 0.01 µM
# [39] = second compound 10 µM, first compound 0.00316 µM
# [40] = second compound 10 µM, first compound 0.01 µM
# 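Further: viability read after seven days of drug exposure.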
SMILES,IC50 (second compound 0.1 µM),IC50 (second compound 0.316 µM),IC50 (second compound 1 µM),IC50 (second compound 3.16 µM),IC50 (second compound 10 µM),"viability, T/C [1]","viability, T/C [2]","viability, T/C [3]","viability, T/C [4]","viability, T/C [7]","viability, T/C [8]","viability, T/C [9]","viability, T/C [10]","viability, T/C [13]","viability, T/C [14]","viability, T/C [15]","viability, T/C [19]","viability, T/C [20]","viability, T/C [25]","viability, T/C [26]",other results
CC(C)NCC(C(=O)N1CCN(c2ncnc3c2C(C)CC3O)CC1)c1ccc(Cl)cc1 (stereo not given) + CNCc1ccccc1-c1csc(C(C)Nc2nc(C)nc3cc(OC)c(OC)cc23)c1,> 10000 nM,> 10000 nM,4280 nM,< 31.6 nM,< 31.6 nM,103%,104%,83.4%,77.6%,101%,102%,79.9%,70.1%,109%,98.5%,75.4%,1.5%,1.33%,0.61%,1.13%,"viability, T/C [5]: 84.1%; viability, T/C [6]: 66.3%; viability, T/C [11]: 67.5%; viability, T/C [12]: 55.9%; viability, T/C [16]: 66.5%; viability, T/C [17]: 58%; viability, T/C [18]: 38.2%; viability, T/C [21]: 1.91%; viability, T/C [22]: 0.59%; viability, T/C [23]: 0.9%; viability, T/C [24]: 0.33%; viability, T/C [27]: 0.73%; viability, T/C [28]: 0.33%; viability, T/C [29]: 2.15%; viability, T/C [30]: 0.33%"
CCN1CCN(Cc2ccc(Nc3ncc(F)c(-c4cc(F)c5nc(C)n(C(C)C)c5c4)n3)nc2)CC1 + CNCc1ccccc1-c1csc(C(C)Nc2nc(C)nc3cc(OC)c(OC)cc23)c1,> 1000 nM,> 1000 nM,627 nM,< 3.16 nM,< 3.16 nM,94.4%,89.5%,108%,94.9%,89.6%,107%,103%,93.4%,117%,95.3%,119%,0.25%,0.25%,0.29%,0.24%,"viability, T/C [31]: 107%; viability, T/C [32]: 97.5%; viability, T/C [33]: 120%; viability, T/C [34]: 108%; viability, T/C [35]: 116%; viability, T/C [36]: 111%; viability, T/C [16]: 7.8%; viability, T/C [37]: 2.02%; viability, T/C [38]: 0.33%; viability, T/C [21]: 0.17%; viability, T/C [22]: 0.6%; viability, T/C [39]: 0.21%; viability, T/C [40]: 0.26%; viability, T/C [27]: 0.21%; viability, T/C [28]: 0.26%"
CCNC(=O)CC1N=C(c2ccc(Cl)cc2)c2cc(OC)ccc2-n2c(C)nnc21 (stereo not given) + CNCc1ccccc1-c1csc(C(C)Nc2nc(C)nc3cc(OC)c(OC)cc23)c1,509 nM,388 nM,360 nM,< 31.6 nM,< 31.6 nM,108%,87.9%,56.1%,41.4%,105%,93%,53.3%,34.3%,99%,92.2%,51.8%,0.37%,0.16%,0.15%,0.14%,"viability, T/C [5]: 32%; viability, T/C [6]: 31.4%; viability, T/C [11]: 28.6%; viability, T/C [12]: 30.6%; viability, T/C [16]: 34.9%; viability, T/C [17]: 32.5%; viability, T/C [18]: 31.3%; viability, T/C [21]: 0.27%; viability, T/C [22]: 0.08%; viability, T/C [23]: 0.08%; viability, T/C [24]: 0.19%; viability, T/C [27]: 0.12%; viability, T/C [28]: 0.8%; viability, T/C [29]: 0.13%; viability, T/C [30]: 0.36%"
Cn1ncnc1[C@H]1c2n[nH]c(=O)c3cc(F)cc(c23)N[C@@H]1c1ccc(F)cc1 + CNCc1ccccc1-c1csc(C(C)Nc2nc(C)nc3cc(OC)c(OC)cc23)c1,> 100 nM,> 100 nM,> 100 nM,< 0.316 nM,< 0.316 nM,81.7%,81%,,,81.8%,80.3%,,,91.5%,89.6%,,0.7%,0.26%,0.16%,1.36%,"viability, T/C (second compound 0.1 µM, first compound 0.000316 µM): 101%; viability, T/C (second compound 0.1 µM, first compound 0.001 µM): 94.8%; viability, T/C [31]: 84.5%; viability, T/C [32]: 80.2%; viability, T/C (second compound 0.316 µM, first compound 0.000316 µM): 104%; viability, T/C (second compound 0.316 µM, first compound 0.001 µM): 81.2%; viability, T/C [33]: 82.1%; viability, T/C [34]: 76.7%; viability, T/C (second compound 1 µM, first compound 0.000316 µM): 114%; viability, T/C (second compound 1 µM, first compound 0.001 µM): 119%; viability, T/C [35]: 112%; viability, T/C [36]: 93.8%; viability, T/C (second compound 3.16 µM, first compound 0.000316 µM): 2.53%; viability, T/C (second compound 3.16 µM, first compound 0.001 µM): 1.22%; viability, T/C [37]: 2.97%; viability, T/C [38]: 1.01%; viability, T/C (second compound 10 µM, first compound 0.000316 µM): 0.78%; viability, T/C (second compound 10 µM, first compound 0.001 µM): 0.71%; viability, T/C [39]: 0.43%; viability, T/C [40]: 0.21%"
